Like-named read-outs stand apart in the source and are kept apart here.
Tests used:
[1] = test system: T. cruzi, strain Tulahuen C4 amastigotes; assay: In vitro activity against T. cruzi; type: cell-based; settings: for SI (T. c.): IC50 in L6 cells/IC50 in T. cruzi; for IC50: Trypanosoma cruzi, T. cruzi Tulahuen C4 amastigotes, means of 2 to 3 measurements, SD < 5%, read-out: T. c. IC50; for Bnz/comp: fold antichagasic potency relative to Bnz (T. cruzi IC50 ratio)
Description: (§3) The concentration of compound that inhibits parasite growth by 50% (IC50) was calculated from dose response curves for each parasite (Table 1). In addition, compounds were tested for toxicity in L6 rat skeletal myoblasts, the host cells for T. cruzi amastigotes, in order to calculate a selectivity index for each parasite [SI = IC50L6/IC50parasite]
(§4) In vitro activity against T. cruzi, T. b. rhodesiense, L. donovani and cytotoxicity assessment using L6 cells (rat skeletal myoblasts) was determined using a 96-well plate format as previously described [37]. Data were analyzed with the graphic program Softmax Pro (Molecular Devices, Sunnyvale, CA, USA), which calculated IC50 values by linear regression from the sigmoidal dose inhibition curves.

[2] = test system: T.b. rhodesiense, strain STIB 900 trypomastigotes; assay: In vitro activity against T. b. rhodesiense; type: cell-based; settings: for IC50: Trypanosoma brucei, T.b. rhodesiense STIB 900 trypomastigotes, means of 2 to 3 measurements, SD < 5%, read-out: T.b.r. IC50
Description: (§1) Compounds in Table 1 were screened for anti-parasitic activity against three trypanosomatids: T. cruzi, T. b. rhodesiense and Leishmania donovani and compared with previously made analogs shown in orange and designated with a. […] In addition, compounds were tested for toxicity in L6 rat skeletal myoblasts, the host cells for T. cruzi amastigotes, in order to calculate a selectivity index for each parasite [SI = IC50L6/IC50parasite] (Table 1). The TDR (Special Programme for Research and Training in Tropical Diseases, World Health Organization) criteria were adopted to interpret antiparasitic activity and selectivity.
(§2) In vitro activity against T. cruzi, T. b. rhodesiense, L. donovani and cytotoxicity assessment using L6 cells (rat skeletal myoblasts) was determined using a 96-well plate format as previously described. Data were analyzed with the graphic program Softmax Pro (Molecular Devices, Sunnyvale, CA, USA), which calculated IC50 values by linear regression from the sigmoidal dose inhibition curves.

[3] = test system: L6 cells (rat skeletal myoblasts); assay: Cytotoxicity in the host L6 cells; type: cell-based; settings: for fold less toxic towards L6 cells relative to unsubstituted compounds 10 and 10a: 9 vs 10, 9a vs 10a
Description: as §1, §2

[4] = Cytotoxicity in the host L6 cells; type: cell-based, rat; settings: rat, L6 cells (rat skeletal myoblasts); cytotoxicity in host L6 cells; read-out: Cyt. L6 IC50
Description: as §1, §2

[5] = test system: L. donovani axenic, strain MHOM-ET-67/L82 amastigotes; assay: In vitro activity against L. donovani; type: cell-based; settings: for IC50: Leishmania donovani, L. donovani axenic amastigotes MHOM-ET-67/L82, means of 2 to 3 measurements, SD < 5%, read-out: L.d. IC50
Description: as §3, §4

[6] = test system: bloodstream form T.b. brucei wild type; assay: T. brucei antiproliferating assay, wild type; type: cell-based; settings: Trypanosoma brucei, read-out: IC50 value T.b. brucei Wild type, bloodstream form; means from 4 experiments ± SD
Description: The BSF of T. brucei parasites were seeded at 1 × 10^3 mL^−1 in 200 μL of growth medium containing different concentrations of nitroheterocycle. Where appropriate, induction of the TbNTR was carried out by adding tetracycline (1 μg/mL). After incubation for 3 days at 37 °C, 20 μL of Alamar blue was added to each well and the plates incubated for a further 16 h. The cell density of each culture was determined as described before and the IC50 established.

[7] = test system: transgenic T. cruzi parasites expressing firefly luciferase; type: in vivo, Balb/c mice
Description: A fast luminescence assay was used in an acute infected murine model, in which transgenic T. cruzi parasites expressing firefly luciferase were injected in 5 week-old Balb/c mice. Mice were injected with D-luciferin before imaging. Groups of 5 mice/group were treated i.p. for 10 consecutive days with each compound, at 13 or 15 mg/kg/day. […] The mean ratio of parasite levels was calculated after 5 and 10 days of treatment.
For in vivo studies, a Brazilian strain trypomastigotes from transgenic T. cruzi parasites expressing firefly luciferase were used as described before. Briefly, parasites (10^5 trypomastigotes) were injected in 5 week-old Balb/c mice (Taconic) and three days later mice were anesthesized by inhalation of isofluorane, followed by an injection with 150 mg/kg of D-luciferin potassium-salt in PBS. Mice were imaged 5–10 min after injection of luciferin with an IVIS 100 (Xenogen, Alameda, CA) and the data acquisition and analysis were performed with the software LivingImage (Xenogen) as described before. Treatment with test compounds started 4 days post infection at 13 or 15 mg/kg/day × 10 days, given i.p. The vehicle control was 2% methylcellulose +0.5% Tween 80 and groups of 5 mice/group were used. Mice were imaged after 5 and 10 days of treatment. The ratio of parasite levels was calculated for each animal dividing the luciferase signal after treatment by the luciferase signal on the first imaging (before treatment). Mean values of all animals in each group ± SD were used for plotting.

[8] = test system: bloodstream form T.b. brucei recombinant parasites expressing wild type (-tet) or elevated (+tet) levels of TbNTR; assay: microbe, parasite or virus in culture; type: cell-based; settings: Trypanosoma brucei
Description: The BSF of T. brucei parasites were seeded at 1 × 10^3 mL^−1 in 200 μL of growth medium containing different concentrations of nitroheterocycle. Where appropriate, induction of the TbNTR was carried out by adding tetracycline (1 μg/mL). After incubation for 3 days at 37 °C, 20 μL of Alamar blue was added to each well and the plates incubated for a further 16 h. The cell density of each culture was determined as described before [20] and the IC50 established.

[9] = test system: T.b. rhodesiense, strain STIB 900 trypomastigotes; design: method as in PMID 26344593, PMID 25580906; settings: cited from earlier work
[10] = test system: L6 cells (rat skeletal myoblasts); design: method as in PMID 26344593, PMID 25580906; settings: previously evaluated compounds (orange, designated a); read-out: Cyt. L6 IC50; cited from earlier work
[11] = propanamide vs acetamide analog

CN(C(=O)Cn1cnc([N+](=O)[O-])n1)c1ccc(C(F)(F)F)cc1 [Compound 2, N-methyl-2-(3-nitro-1H-1,2,4-triazol-1-yl)-N-(4-(trifluoromethyl)phenyl)acetamide]
SI (T. c.) [1]: ~165 | IC50 [1]: 1540 nM | fold decrease in antichagasic activity compared to 2a ([1]; compared with 2a): 1.6 fold | fold more potent towards T. cruzi amastigotes than 2-nitroimidazole counterpart 3 ([1]; compared with 3): 32 fold | Bnz/comp [1]: 1.4 | melting point: 133 to 134 °C | anti-HAT activity class (TDR criteria) ([2]; T. b. rhodesiense): inactive | IC50 [2]: 37400 nM | fold decrease in toxicity against L6 cells compared to 2a ([3]; compared with 2a): 2 fold | IC50 [4]: 254000 nM | IC50 [5]: 47700 nM

N#Cc1ccc(-c2ccc(NC(=O)CCn3cnc([N+](=O)[O-])n3)cc2)cc1 [Compound 9, N-(4′-cyano-[1,1′-biphenyl]-4-yl)-3-(3-nitro-1H-1,2,4-triazol-1-yl)propanamide]
IC50 [6]: 120 ± 10 nM | SI (T. c.) [1]: 2453 | IC50 [1]: 94 nM | Bnz/comp [1]: 23 | fold more potent against T. cruzi than the acetamide analog [1, 11]: about 1.5 fold | toxicity symptoms in treated mice ([7]; 15 mg/kg/day i.p. x 10 days): No toxicity symptoms were observed | parasite load after 10 days of treatment ([7]; 15 mg/kg/day i.p. x 10 days, acute murine model, p < 0.0001): undetectable levels | parasitic level after 5-day treatment ([7]; 15 mg/kg/day i.p., compared to untreated control): Statistically significant reduction in parasitic level | SI (T.b.r.) ([2]; IC50 in L6 cells/IC50 in T.b. rhodesiense): 2527 | IC50 [2]: 91 nM | fold more potent against T. b. rhodesiense than the corresponding acetamide [2, 11]: 3.7 fold | IC50 ([8]; read-out: IC50 value T.b. brucei TbNTR (+tet)): 120 ± 10 nM | IC50 ([8]; read-out: IC50 value T.b. brucei TbNTR (-tet)): 550 ± 40 nM | fold less toxic towards L6 cells relative to unsubstituted compounds 10 and 10a [3]: > 6 fold | IC50 [4]: 230000 nM | SI (L.d.) ([5]; IC50 in L6 cells/IC50 in L. donovani): 73 | antileishmanial activity class (TDR criteria) ([5]; L. donovani): moderately active (‘moderate activity’ (IC50 between 1.0 and 6.0 μM)) | IC50 [5]: 3170 nM

N#Cc1ccc(-c2ccc(NC(=O)Cn3cnc([N+](=O)[O-])n3)cc2)cc1 [Compound 9a]
anti-HAT activity class (TDR criteria) ([9]; T. b. rhodesiense, previously evaluated acetamides): active | IC50 ([9]; previously evaluated compounds (orange, designated a), read-out: T.b.r. IC50): 336 nM | IC50 [10]: 165000 nM | fold less toxic towards L6 cells relative to unsubstituted compounds 10 and 10a [3]: > 3.5 fold

— article PMC5049494, “Nitrotriazole-based acetamides and propanamides with broad spectrum antitrypanosomal activity” (European Journal of Medicinal Chemistry, 2016)
